These results are taken from patent US11505548B2, “Heterocyclic compounds and their use for treatment of helminthic infections and diseases” (Celgene Corporation, priority 2019, dated 2022).

The assay deals with Onchocerca gutturosa Adult Male Worms. As to the kind of experiment: Onchocerciasis in vitro screening model, worm motility score. Particulars: read-out: O. gutturosa activity level (IC50 or MED). It counts as cell-based.
The mark [1] stands for this setting: in vitro, Onchocerca gutturosa adult male worms, class A/B/C.
The mark [2] stands for this setting: Onchocerca gutturosa, Table 1 O. gutturosa, levels A/B/C, motility or MTT readout not specified.

Like-named read-outs stand apart in the source and are kept apart here.

On to `CC(C)Oc1cnc(-c2nsc(Nc3ncc(C(C)C)cc3C(F)(F)F)n2)cc1C(=O)N(C)C` [Compound 219, 5-isopropoxy-2-(5-(5-isopropyl-3-(trifluoromethyl)pyridin-2-ylamino)-1,2,4-thiadiazol-3-yl)-N,N-dimethyliso-nicotinamide], for which, under setting [1], the half-maximal inhibitory concentration (IC50) was in the range of 200 to 500 nM.

On to `CC(C)Oc1cc(-c2nsc(Nc3ncccc3N(C)C)n2)ncc1C(F)(F)F` [Compound 147, N2-(3-(4-isoprop-oxy-5-(trifluoromethyl)pyridin-2-yl)-1,2,4-thiadiazol-5-yl)-N3,N3-dimethyl-pyridine-2,3-diamine], for which the 50% inhibitory concentration (IC50) under setting [2] was in the range of 500 to 5000 nM.

For `CN(C)c1cccnc1Nc1nc(-c2ccc(F)cn2)ns1` [Compound 121, N2-(3-(5-fluoro-pyridin-2-yl)-1,2,4-thiadiazol-5-yl)-N3,N3-dimethylpyridine-2,3-diamine], under setting [2], the concentration for half-maximal inhibition (IC50) was below 200 nM. In the case of `c1ccc(-c2nsc(Nc3ccc(N4CCNCC4)cn3)n2)nc1` [Cmpd 4, N-(5-(piperazin-1-yl)pyridin-2-yl)-3-(pyridin-2-yl)-1,2,4-thiadiazol-5-amine], the IC50 under setting [2] was in the range of 500 to 5000 nM. Take `COc1ccc(-c2noc(Nc3cc(OC4CCOCC4)ccn3)n2)nc1` [Compound 47, 3-(5-methoxy-pyridin-2-yl)-N-(4-(tetrahydro-2H-pyran-4-yloxy)pyridin-2-yl)-1,2,4-oxadiazol-5-amine]: under setting [2], the concentration for half-maximal inhibition (IC50) was in the range of 500 to 5000 nM. Turning to `CC(=O)N(C)c1cc(C(F)(F)F)cnc1Nc1nc(-c2cc3c(cn2)NC(=O)C3(C)C)ns1` [Compound 280, N-(2-(3-(3,3-dimethyl-2-oxo-2,3-dihydro-1H-pyrrolo[2,3-c]pyridin-5-yl)-1,2,4-thiadiazol-5-ylamino)-5-(trifluoromethyl)pyridin-3-yl)-N-methylacetamide], the IC50 under setting [1] fell in the range of 500 to 5000 nM. For `Cc1cccnc1Nc1nnc(-c2ccc(OC3CCN(C)CC3)cn2)s1` [Compound 63, 5-(5-(1-methyl-piperidin-4-yloxy)pyridin-2-yl)-N-(3-methylpyridin-2-yl)-1,3,4-thiadiazol-2-amine], under setting [2], the IC50 was in the range of 500 to 5000 nM. With `CC(C)Oc1cccnc1-c1nsc(Nc2ncc(C(F)(F)F)cc2C(=O)N(C)C)n1` [Compound 281, 2-(3-(3-isoprop-oxypyridin-2-yl)-1,2,4-thiadiazol-5-ylamino)-N,N-dimethyl-5-(trifluoromethyl) nicotinamide], under setting [1], the 50% inhibitory concentration (IC50) lay within 500 to 5000 nM. For `Cc1cccnc1Nc1nc(-c2ccc(N3CCS(=O)(=O)CC3)cn2)ns1` [Compound 26, 4-(6-(5-((3-methylpyridin-2-yl)amino)-1,2,4-thiadiazol-3-yl)pyridin-3-yl)thio-morpholine 1,1-dioxide], the IC50 under setting [2] lay within 500 to 5000 nM.

Regarding `Cc1cnc(Nc2nc(-c3cc(C(N)=O)c(OC(C)C)cn3)ns2)c(C(F)(F)F)c1` [Compound 252, 5-isopropoxy-2-(5-(5-methyl-3-(trifluoro-methyl)pyridin-2-ylamino)-1,2,4-thiadiazol-3-yl)isonico-tinamide], the half-inhibitory concentration (IC50) under setting [1] lay in the range of 500 to 5000 nM. Take `CC(C)c1cnc(Nc2nc(-c3cc4c(cn3)OC(C)(C)C4)ns2)cc1C(F)(F)F` [Compound 296, 3-(2,2-dimethyl-2,3-dihydrofuro[2,3-c]pyridin-5-yl)-N-(5-isopropyl-4-(trifluoromethyl)pyridin-2-yl)-1,2,4-thiadiazol-5-amine]: under setting [1], the IC50 was below 200 nM. Take `Cc1cc(C#N)cnc1Nc1nc(-c2ccc(OC(C)C)cn2)ns1` [Compound 231, 6-(3-(5-isoprop-oxypyridin-2-yl)-1,2,4-thiadiazol-5-ylamino)-5-methyl-nicotinonitrile]: the half-inhibitory concentration (IC50) under setting [1] was in the range of 200 to 500 nM. For the molecule `CC(C)Oc1cnc(-c2nnc(Nc3ncccc3N(C)C)o2)cc1C(F)(F)F` [Compound 160, N2-(5-(5-isopropoxy-4-(trifluoromethyl)pyridin-2-yl)-1,3,4-oxadiazol-2-yl)-N3,N3-dimethyl-pyridine-2,3-diamine], the IC50 under setting [2] fell in the range of 500 to 5000 nM.

For the molecule `c1ccc(Nc2nc(-c3ccccn3)ns2)nc1` [Compound 33, N,3-di(pyridin-2-yl)-1,2,4-thiadiazol-5-amine], under setting [2], the IC50 was below 200 nM. Regarding `CC(C)Oc1ccc(-c2nsc(Nc3ncccc3S(=O)(=O)N3CCC3)n2)nc1` [Compound 298, N-(3-(azetidin-1-ylsulfonyl)pyridin-2-yl)-3-(5-isopropoxypyridin-2-yl)-1,2,4-thiadiazol-5-amine], under setting [1], the half-inhibitory concentration (IC50) fell in the range of 200 to 500 nM. With `Cc1cccnc1Nc1nc(-c2cc(C3CCN(C)CC3)ccn2)ns1` [Compound 44, 3-(4-(1-methyl-piperidin-4-yl)pyridin-2-yl)-N-(3-methylpyridin-2-yl)-1,2,4-thiadiazol-5-amine], the IC50 under setting [2] was below 200 nM. Regarding `CC(C)Oc1cccnc1-c1nc(Nc2cc(C(F)(F)F)c(C(C)C)cn2)nn1C` [Compound 148, N-(5-(3-isoprop-oxypyridin-2-yl)-1-methyl-1H-1,2,4-triazol-3-yl)-5-isopropyl-4-(trifluoromethyl) pyridin-2-amine], the IC50 under setting [2] lay in the range of 500 to 5000 nM. With `CC(C)Oc1cnc(-c2nsc(Nc3ncccc3N(C)C(=O)C3CC3)n2)cc1C(F)(F)F` [Compound 186, N-(2-(3-(5-isopropoxy-4-(trifluoro-methyl)pyridin-2-yl)-1,2,4-thiadiazol-5-ylamino)pyridin-3-yl)-N-methylcyclo-propanecarbox-amide], under setting [2], the concentration for half-maximal inhibition (IC50) fell in the range of 500 to 5000 nM. Take `COc1ccnc(-c2nsc(Nc3cc(C(F)(F)F)c(C(C)C)cn3)n2)c1` [Compound 182, N-(5-iso-propyl-4-(trifluoro-methyl)pyridin-2-yl)-3-(4-methoxy-pyridin-2-yl)-1,2,4-thiadiazol-5-amine]: the IC50 under setting [2] is 200 to 500 nM. As for `CC(C)Oc1ccnc(-c2nnc(Nc3ccc(C(C)C)cn3)s2)c1` [Compound 232, 5-(4-isopropoxy-pyridin-2-yl)-N-(5-isopropyl-pyridin-2-yl)-1,3,4-thiadiazol-2-amine], the IC50 under setting [1] lay within 500 to 5000 nM. Still for that read-out and setting: next, `CC(=O)N(C)c1cc(C(F)(F)F)cnc1Nc1nc(-c2ccc(OC3COC3)cn2)ns1` [Compound 329, N-methyl-N-(2-(3-(5-(oxetan-3-yloxy)pyridin-2-yl)-1,2,4-thiadiazol-5-ylamino)-5-(trifluoromethyl)pyridin-3-yl)acetamide]: 500 to 5000 nM. On to `CN(C)c1cccnc1Nc1nc(-c2cc3c(cn2)N(C)CC3)ns1` [Compound 162, N3,N3-dimethyl-N2-(3-(1-methyl-2,3-dihydro-1H-pyrrolo[2,3-c]pyridin-5-yl)-1,2,4-thiadiazol-5-yl)pyridine-2,3-diamine], for which, under setting [2], the IC50 is below 200 nM. Consider `Cc1cnc(Nc2nc(-c3cc(OC4COC4)ccn3)ns2)c(C(F)(F)F)c1` [Compound 275, N-(5-methyl-3-(trifluoromethyl)pyridin-2-yl)-3-(4-(oxetan-3-yloxy)pyridin-2-yl)-1,2,4-thiadiazol-5-amine], for which the concentration for half-maximal inhibition (IC50) under setting [1] is 500 to 5000 nM. Consider `CC(C)Oc1ccc(-c2nsc(Nc3ncccc3N(C)C(=O)C3CCC3)n2)nc1` [Compound 171, N-(2-(3-(5-isopropoxy-pyridin-2-yl)-1,2,4-thiadiazol-5-ylamino)pyridin-3-yl)-N-methylcyclo-butane-carboxamide], for which the IC50 under setting [2] is below 200 nM. Still for that read-out and setting: in the case of `CC(C)Oc1cnc(-c2nsc(Nc3ncccc3N3CCCC3=O)n2)cc1C(F)(F)F` [Compound 179, 1-(2-(3-(5-isopropoxy-4-(trifluoromethyl)pyridin-2-yl)-1,2,4-thiadiazol-5-ylamino)pyridin-3-yl)pyrrolidin-2-one] it was 500 to 5000 nM; in that of `Cc1cccnc1Nc1nc(-c2ccc(OC3CCN(C4CC4)C[C@@H]3F)cn2)ns1` (stereo partly drawn) [Compound 92, 3-(5-((3S)-1-cyclopropyl-3-fluoro-piperidin-4-yloxy)pyridin-2-yl)-N-(3-methylpyridin-2-yl)-1,2,4-thiadiazol-5-amine], below 200 nM.

In the case of `c1ccc(-c2nsc(Nc3ccc(N4CCOCC4)cn3)n2)nc1` [Cmpd 5, N-(5-morpholino-pyridin-2-yl)-3-(pyridin-2-yl)-1,2,4-thiadiazol-5-amine], the IC50 under setting [2] lay within 500 to 5000 nM.

Consider `CC(=O)N(C)c1cc(C(F)F)cnc1Nc1nc(-c2cc3c(cn2)N(C)CC3)ns1` [Compound 330, N-(5-(difluoro-methyl)-2-(3-(1-methyl-2,3-dihydro-1H-pyrrolo[2,3-c]pyridin-5-yl)-1,2,4-thiadiazol-5-ylamino)pyridin-3-yl)-N-methylacetamide], for which the IC50 under setting [1] fell in the range of 500 to 5000 nM. For `Cc1cccnc1Nc1nc(-c2cc(OC3CC3)ccn2)ns1` [Compound 65, 3-(4-cycloprop-oxypyridin-2-yl)-N-(3-methyl-pyridin-2-yl)-1,2,4-thiadiazol-5-amine], the IC50 under setting [2] lay in the range of 500 to 5000 nM. `CN1CCC(Oc2ccc(-c3nsc(Nc4ncccc4C(F)(F)F)n3)nc2)CC1` [Compound 55, 3-(5-(1-methyl-piperidin-4-yloxy)pyridin-2-yl)-N-(3-(trifluoromethyl)pyridin-2-yl)-1,2,4-thiadiazol-5-amine]: under setting [2], the IC50 is below 200 nM. On to `CC(C)Oc1ccc(-c2nsc(Nc3ncccc3C(C)C)n2)nc1` [Compound 115, 3-(5-isopropoxy-pyridin-2-yl)-N-(3-isopropyl-pyridin-2-yl)-1,2,4-thiadiazol-5-amine], for which the IC50 under setting [2] is below 200 nM. `Cc1ccnc(Nc2nc(-c3ncccc3C)ns2)c1` [Compound 238, 3-(3-methyl-pyridin-2-yl)-N-(4-methyl-pyridin-2-yl)-1,2,4-thiadiazol-5-amine]: the IC50 under setting [1] was below 200 nM.

As to `CC(C)Oc1ccc(-c2nsc(Nc3ncccc3N3CCCC3)n2)nc1` [Compound 116, 3-(5-isopropoxy-pyridin-2-yl)-N-(3-(pyrrolidin-1-yl)pyridin-2-yl)-1,2,4-thiadiazol-5-amine], under setting [2], the IC50 is below 200 nM. Turning to `Cc1cccnc1Nc1nnc(-c2cc(OC(C)C)ccn2)o1` [Compound 211, 5-(4-isopropoxy-pyridin-2-yl)-N-(3-methyl-pyridin-2-yl)-1,3,4-oxadiazol-2-amine], under setting [1], the IC50 lay within 500 to 5000 nM. As for `Cc1cccnc1Nc1nc(-c2cc(C(F)(F)F)c(OCC3CC3)cn2)ns1` [Compound 110, 3-(5-(cyclo-propylmethoxy)-4-(trifluoromethyl)pyridin-2-yl)-N-(3-methyl-pyridin-2-yl)-1,2,4-thiadiazol-5-amine], the IC50 under setting [2] is below 200 nM.
